One data set concerns FLT3 phosphorylation. Briefly: plasma inhibitory activity (PIA) test on patient plasma samples. It counts as cell-based, human. Here is the method:
For 7 patients (patients 1 to 7) who were repeatedly administered with 10 mg of Compound A1 one time a day or 20 mg one time a day in a clinical test involving patients with acute myeloid leukemia, in-plasma concentrations of Compound A1 were measured before administration and after 4 hours after the administration on day 1, day 8, day 15, and day 22 of the first cycle (one cycle is 28 days) and on day 1 of the second cycle, and on the end day of the administration of Compound A1. In addition, a plasma inhibitory activity (PIA) test (Blood, 2006, Vol. 108, p 3477 to 3483) was carried out using plasma samples from the same patients at the same time points. A graph showing a correlation between the in-plasma concentrations and the PIA test results is shown FIG. 1. In FIG. 1, open circles, open rectangles, open triangles, filled circles, filled triangles, filled rectangles, and cross symbols indicate the results of patients 1 to 7, respectively.

Data set [1] deals with patients with acute myeloid leukemia. Briefly: clinical test, repeated QD administration to patients with acute myeloid leukemia (side effects). It counts as in vivo, human. The following applies: AML patients, 10 mg or 20 mg one time a day.
The next data set concerns acute myeloid leukemia. Briefly: BID administration test in a patient with acute myeloid leukemia (bone marrow examination). It counts as in vivo, human. The following applies: one AML patient, 75 mg BID before a meal, day 29 of administration; 55% before administration. As to the method:
A patient with acute myeloid leukemia is subjected to the BID administration of Compound A of 25 to 225 mg per administration before having a meal two times a day. A preferred effect (for example, a decrease in the proportion of blast cells in the bone marrow, or a curing effect equal to or higher than PR) is confirmed. The specific doses per administration are 50 mg, 75 mg, 100 mg, or 150 mg. Patients have received chemotherapy with cytarabine, daunorubicin, idarubicin, and the like as preliminary curing, and some patients have not reached CR, CRi, CRp, or PR by preliminary curing. The curing effect is determined by the following criteria. The bone marrow puncture sample is evaluated and determined according to the following criteria. Complete Response (CR): a state in which […], and the neutrophil count and the platelet count are respectively 1,000 counts/μL or more and 100,000 counts/μL or more. Complete Response with incomplete platelet recovery ([…]): a state in which myeloblasts are 5% or less and the neutrophil count is 1,000 counts/μL or more, but the platelet count is 100,000 counts/μL or less. Complete Response with incomplete hematological recovery (CRi): a state in which myeloblasts are 5% or less and there is no blood transfusion dependency, but the neutrophil count is 1,000 counts/μL or less. […]

Data set [2] relates to FLT3-ITD+D698N-expressing 32D cell. Briefly: inhibitory effect on proliferation of mutant FLT3-expressing 32D cell (intracellular ATP level). It counts as cell-based. The following applies: for pIC50: 32D, 72 h, Mutation type FLT3-ITD + D698N, day 3, ATP level, read-out: Effect determination (IC50 value class), proliferation. Here is the method:
(§1) 32D cell line expressing FLT3 gene mutations (FLT3-ITD+D698N, +N676T) found according to the random mutagenesis analysis method was cultured for a predetermined period of time (setting: 37° C. and 5% CO2, steam saturated), and then the cells were plated on a 384-well plate at a cell concentration of 299 cells/well. The random mutagenesis analysis method was carried out according to the following reference document.
(§2) Each of the test substances was dissolved in dimethyl sulfoxide (DMSO) to prepare a DMSO solution containing 20 mmol/L of the test substance. After serially diluting with DMSO and further diluting with a medium containing 10% serum, each of the test substance solutions having a concentration 10 times the final treatment concentration was prepared. […] In addition, a group (a positive control group) in which only DMSO containing no test substance was added to a well in which cells were plated and a group (a negative control group) in which only DMSO containing no test substance was added to a well in which only the medium was added were prepared. On day 3 after adding the test substance solution, the intracellular ATP level was measured with “Cell” ATP Assay reagent Ver. 2 (manufactured by TOYO B-Net Co., Ltd.) to evaluate cell viability.
(§3) The suppression rate was determined by assuming that the amount of luminescence signal in the negative control group corresponded to the suppression of cell viability by 100% and the amount of luminescence signal in the positive control group corresponded to the suppression of cell viability by 0%. […] 3 (manufactured by ITOCHU Techno-Solutions Corporation).

Data set [3] deals with FLT3-ITD+N676T-expressing 32D cell. Described as above. It counts as cell-based. The following applies: for pIC50: 32D, 72 h, Mutation type FLT3-ITD + N676T, day 3, ATP level, read-out: Effect determination (IC50 value class), proliferation. Here is the method: as §1, §2, §3
The subject of data set [4] is FLT3-ITD-expressing 32D cell. The description is as above. The following applies: 72 h, Mutation type FLT3-ITD, day 3, ATP level, read-out: Effect determination (IC50 value class), proliferation. It counts as cell-based. As to the method: as §1, §2, §3

pIC50: −log10 of the molar value. A value given as a limit tells only on which side of the number the result lay.

With `CCCNc1nc(Nc2ccc(C#N)cc2)ncc1C#CCCCNC(=O)[C@H](C)N(C)C(=O)/C=C/CN(C)C` [Compound A1, (S,E)-N-(1-((5-(2-((4-cyanophenyl)amino)-4-(propylamino)pyrimidin-5-yl)-4-pentyn-1-yl)amino)-1-oxopropan-2-yl)-4-(dimethylamino)-N-methyl-2-butenamide], in the data set with FLT3 phosphorylation (based on the regression line of FIG. 1, 7 AML patients given 10 mg or 20 mg one time a day), the “in-plasma concentration at which the phosphorylation inhibition rate reaches 100%” value was “exceeds 30 ng/mL”. The “in-plasma concentration required to exhibit a remarkable FLT3 phosphorylation inhibition rate” value in the data set on FLT3 phosphorylation (concluded from PIA test results of FIG. 1) is given as not below 40 ng/mL. The serious side effects entry in data set [1] was “No serious side effects were observed”. Further, the “proportion of blast cells in the bone marrow” value with acute myeloid leukemia is listed as 18%. Besides, the pIC50 in data set [2] is 9.00 to 9.30; in data set [3], 9.00 to 9.30; in data set [4] it was 9.30 to 10.00. Moreover, the “inhibitory effect on proliferation, in words” value in data set [2] (FLT3-ITD+D698N-expressing 32D cell, compared with FLT3-ITD-expressing 32D cell) is reported as “strong inhibitory effect”; in data set [3] (FLT3-ITD+N676T-expressing 32D cell), “strong inhibitory effect”.

Take `CCc1nc(C(N)=O)c(Nc2ccc(N3CCC(N4CCN(C)CC4)CC3)c(OC)c2)nc1NC1CCOCC1` [Gilteritinib, 6-ethyl-3-[3-methoxy-4-[4-(4-methylpiperazin-1-yl)piperidin-1-yl]anilino]-5-(oxan-4-ylamino) pyrazine-2-carboxamide, reference compound]: the pIC50 in data set [2] was 7.30 to 8.00; in data set [3], 8.00 to 8.30; in data set [4], 8.30 to 9.00.

Source of the values: patent US20210220355A1, “ANTITUMOR AGENT FOR ACUTE MYELOID LEUKEMIA” (FUJIFILM Corporation, priority 2018, published 2021).
